The test system of one series is MIA-PaCa-2 cells. The series can be described thus: Surface PS (annexin V-APC) and TUNEL apoptosis stain, MIA-PaCa-2 (FIG. 3B). Type of series: cell-based, human. The procedure:
(§1) FIG. 3. GEM exposure triggers PS externalization in pancreatic tumor cells. AsPC-1 (A) and Mia-PaCa-2 (B) cells were treated with varying doses of GEM for 24 h, TUNEL apoptosis stain was performed after surface PS staining with annexin V-APC. The overlay histograms show TUNEL-negative (non-apoptotic) cells. TUNEL positive [AsPC-1: CTL=0.3; GEM 10 nM=2.5; GEM 100 nM=4.6]; [MIA-PaCa-2: CTL=3.6; GEM 1 μM=21].
(§2) Importantly, in low surface PS cells a clear increase was evident using sub-toxic concentrations of GEM that caused <10% apoptosis.
(§3) Various cell types were analyzed for surface PS exposure by flow cytometry with annexin V-FTIC. Involvement of flippases in the regulation of surface PS exposure was analyzed by flippase activity assay. Total cellular PS was quantified by TLC separation of phospholipids and estimation of PS phosphorous. Orthotopic PDAC tumors were established by injecting human or murine PDAC cells into animal pancreas. In vivo bioluminescence and fluorescence imaging were performed to monitor tumor targeting and growth. The molecular mechanisms underlying the induction of apoptosis by SapC-DOPS were evaluated in cultured PDAC cells through measurements of cell viability, TUNEL, and flow cytometric DNA fragmentation.

In the next series the test system is AsPC-1 cells. The series can be described thus: Surface PS (annexin V-APC) and TUNEL apoptosis stain, AsPC-1 (FIG. 3A). Type of series: cell-based, human. The note with it: for TUNEL positive: 24 h (CTL=0.3). As for the experimental part: as §1, §2, §3
The subject of the next series is PDAC cells. The experiment in a line: Surface PS exposure by flow cytometry with annexin V. Type of series: cell-based. As to conditions: chemotherapy treatment of PDAC cells. As for the experimental part: as §3
Series [1] has as its system MIA PaCa-2 human pancreas tumor xenograft. The series can be described thus: MIA PaCa-2 human pancreas tumor xenograft model (Example 3). It counts as in vivo. The note with it: for Day 35 TW (mg) ± SEM: Day 35 mean tumor weight, Q3Dx4. The procedure:
SapC-DOPS was received from Bexion Pharmaceuticals, Inc. and were stored at […] until use. Separate aliquoted vials of SapC-DOPS for the 7.3 mg/kg dose were received. Separate aliquoted vials of vehicle were received, which contained DOPS and no SapC. Each vial was resuspended in 1.2 ml of sterile water for injection (Lot #JPJ551, 13/Braun Medical, Inc., Irvine Calif.). Once formulated, SapC-DOPS was delivered at a 10 ml/kg dose volume. SapC-DOPS and vehicle were formulated fresh daily and administered immediately after preparation.
Gemcitabine (Lot #A735891A) was manufactured by Eli Lilly and Co. (Indianapolis, Ind.) and diluted in a 0.9% NaCl solution (B. Braun Medical, Inc., Irvine, Calif., Lot #J0K465) to a concentration of 4 mg/ml to deliver a 40 mg/kg dose at a 10 ml/kg dose volume. All preparations were made fresh prior to their administration.
The MIA Paca-2 human pancreas tumor cell line was received from American Type Culture Collection (ATCC, Manassas, Va.). Cultures were maintained in RPMI-1640 (Hyclone, Logan, Utah) supplemented with 5% fetal bovine serum, and housed in a 5% CO2 atmosphere. The cultures were expanded in tissue culture flasks at a 1:4 split ratio until a sufficient amount of cells were harvested.
Female NCR nude mice (CrTac:NCR-Foxn1^nu) were supplied by Taconic (Germantown, N.Y.). Mice were received at four weeks' of age, 12-15 g in weight. All mice were acclimated for seven days prior to handling. The mice were housed in microisolator cages (Lab Products, Seaford, Del.) and maintained under specific pathogen-free conditions. The mice were fed PicoLab® irradiated mouse chow (Lab Diet, Richmond, Ind.) and autoclaved water was freely available. […]
Five days following inoculation, tumors were measured using calipers and tumor weight was calculated using the animal study management software, Study Director V. 1.7.54 k (Study Log)^1, Thirty mice with tumor sizes of 105-158 mg were pair-matched into three groups of ten mice each (Day 1). Body weights were recorded when the mice were pair-matched and were taken twice weekly thereafter in conjunction with tumor measurements. […]
On Day 35, tumors were collected from two randomly selected mice per group. […] The lungs were fixed in formalin (Lot #4117, Azer Scientific, Morgantown, Pa.) and sent to the Mayo Clinic Histology (Scottsdale, Ariz.) to be paraffin blocked process through H&E. The lungs were analyzed by a pathologist at Mayo Clinic with emphasis on evidence of granuloma on the lungs.
Mean tumor growth inhibition (TGI) was calculated utilizing the following formula (any tumors that regressed were not used in calculations): […]
The mean tumor shrinkage of each group was calculated and reported. […]
A general note: A xenograft is tissue or cells of one species grown in another, often human tumour cells in immunodeficient mice.

SMILES strings stand for the structures.

In the case of `Nc1ccn([C@@H]2O[C@H](CO)[C@@H](O)C2(F)F)c(=O)n1` [Gemcitabine], the “external PS in viable cells” value with MIA-PaCa-2 cells (24 h, varying doses, moderate surface PS cell line) was “dose-dependent increase”; with AsPC-1 cells (24 h, varying doses, relatively low surface PS cell line), “dose-dependent increase”. For the same molecule, the TUNEL positive is recorded as 21 in the series on MIA-PaCa-2 cells (GEM 1 μM, 24 h (CTL=3.6)); 2.5 in the series with AsPC-1 cells (GEM 10 nM); 4.6 in the series on AsPC-1 cells (GEM 100 nM). Also, the apoptosis in the series with AsPC-1 cells (sub-toxic concentrations of GEM giving a clear PS increase in low surface PS cells) is given as < 10%. In the series on PDAC cells, the “surface PS levels” value is reported as “increase surface PS levels”. Besides, the “Total Deaths” value in series [1] (10 mice per group, study to Day 35) came to 0. Also, the “Day 35 TW (mg) ± SEM” value in series [1] is recorded as 936.0 ± 135.1 mg; in series [1] (listed as gemcitabine) it was 936.0 mg. For the same molecule, the tolerability result in series [1] (mouse, in vivo) is “well tolerated”.

(Values after patent US20220088042A1, “COMBINATION THERAPY INCLUDING SAPC-DOPS FOR THE TREATMENT OF PANCREATIC CANCER” (priority 2016, published 2022).)
